Values quoted from earlier work, collected in patent US9745365B2, “Anti-influenza B virus hemagglutinin antibodies and methods of use” (priority 2014, dated 2017).

Target: influenza B neuraminidase (Influenza B virus, UniProt P03474)
Conditions: higher

influenza B neuraminidase, sequence (P03474 whole entry): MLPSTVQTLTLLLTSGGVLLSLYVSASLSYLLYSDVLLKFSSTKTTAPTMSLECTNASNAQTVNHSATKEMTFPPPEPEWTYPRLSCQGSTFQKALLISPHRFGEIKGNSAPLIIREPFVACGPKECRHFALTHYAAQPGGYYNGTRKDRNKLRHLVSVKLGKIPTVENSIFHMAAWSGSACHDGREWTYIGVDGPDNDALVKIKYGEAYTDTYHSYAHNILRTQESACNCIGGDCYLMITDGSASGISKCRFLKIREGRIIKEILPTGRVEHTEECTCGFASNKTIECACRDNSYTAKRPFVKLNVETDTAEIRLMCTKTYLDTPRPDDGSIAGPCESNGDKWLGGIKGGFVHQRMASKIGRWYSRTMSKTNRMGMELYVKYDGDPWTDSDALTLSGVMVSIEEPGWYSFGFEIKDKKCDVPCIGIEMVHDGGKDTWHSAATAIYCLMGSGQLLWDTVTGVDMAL

For CCOC(=O)C1=C[C@@H](OC(CC)CC)[C@H](NC(C)=O)[C@@H](N)C1 [oseltamivir phosphate], the “IC50 for influenza B neuraminidase compared to that for influenza A neuraminidase” value is listed as 10 fold.
